Assay results taken from patent US11235043B2, “Vaccines against antigens involved in therapy resistance and methods of using same” (Duke University, priority 2012, dated 2022).

System: 4T1-HER2 expressing tumors
Assay: Survivin expression in the mouse 4T1-HER2 tumor model
Assay type: in vivo

CS(=O)(=O)CCNCc1ccc(-c2ccc3ncnc(Nc4ccc(OCc5cccc(F)c5)c(Cl)c4)c3c2)o1 [lapatinib]
survivin expression: no change in survivin expression
